Columns and labels:
[1] = LC retention time (Atlantis T3, 5-95% MeOH gradient, 0.1% formic acid); higher = more retained / less polar
In short: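 Retention times were recorded for reference standards on a polar reversed-phase C18 column. The standards were of purity ≥ 95%, and the Atlantis T3 column (3 × 150 mm, 3 μm) was run at 0.3 mL/min with a gradient from 5 to 95% methanol over 17.5 min, both water and methanol containing 0.1% formic acid. Detection used high-resolution tandem mass spectrometry on a QExactive Plus, with positive and negative electrospray in separate runs, and peaks were integrated in TraceFinder (5 ppm tolerance, at least three points per peak) before being checked by hand.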

[2] = absolute recovery over mixed-bed multilayer solid-phase extraction; higher = better recovery; details: enrichment method: SPE
In short: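 Wastewater (100–250 mL, pH 6.5, glass-fibre filtered) and unfiltered nanopure water (1000 mL) were extracted on a three-layer mixed-bed cartridge, with standards spiked before extraction, after it, or not at all at 1000 ng/L and 200 ng/L respectively, apart from some classes. Internal standards were then added for liquid chromatography with high-resolution tandem mass spectrometry in both ionisation modes. Absolute recovery compares background-corrected response ratios of pre- and post-spiked samples across at least two replicates.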

[3] = absolute recovery over vacuum-assisted evaporative concentration; higher = better recovery; details: enrichment method: VEC
In short: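 Samples of influent (6 mL), effluent (15 mL) and surface or nanopure water (60 mL) were spiked with standards before or after concentration, or left unspiked, at 200 ng/L (nanopure/surface) or 1000 ng/L (wastewater), adjusted by class and compound. Concentration was by evaporation at 55 °C and 20 mbar to about 0.3 mL, followed by adjustment to 0.4 mL and centrifugation. Internal standards were then added for LC-HRMS/MS analysis. Absolute recovery was (response ratio pre − unspiked)/(post − unspiked) × 100, using averages of ≥ 2 replicates.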

Structure (SMILES) | LC retention time [1] [min] | absolute recovery ([2]; nanopure water) [%] | absolute recovery ([2]; wastewater effluent) [%] | absolute recovery ([3]; wastewater effluent) [%] | absolute recovery ([2]; surface water) [%] | absolute recovery ([2]; wastewater influent) [%] | absolute recovery ([3]; wastewater influent) [%]
Cn1c(=O)c2c(ncn2C)n(C)c1=O [Coffein] | 12.5 | 96.4 | 94.5 | 99.7 | – | – | –
Fc1ccc(C2(Cn3cncn3)OC2c2ccccc2Cl)cc1 (centres undefined) [Epoxiconazol] | 20.3 | 100 | 93.9 | 103 | 95.4 | 92.7 | 99.3
COC(=O)C(Cc1ccccc1)NC(=O)C(CC(=O)[O-])[NH2+]CCC(C)(C)C (centres undefined) [Neotam] | 17.2 | 91.9 | 93.8 | 89.2 | 91.3 | 95.2 | 81.8
CNC(=O)CSP(=S)(OC)OC [Dimethoat] | 14.4 | 93.4 | 93 | 102 | 90.7 | 92.3 | 103
CCNc1nc(Cl)nc(NC(C)(C)C)n1 [Terbutylazin] | 19.7 | 94.9 | 93.8 | 95 | 95 | 93.4 | 91.9
Cc1cc(N(C2OC(C(=O)[O-])C(O)C(O)C2O)S(=O)(=O)c2ccc(N)cc2)no1 (centres undefined) [Sulfamethoxazole-N1-Glucuronide] | 11.8 | 86.9 | 49.2 | 96.4 | 21.3 | 66.1 | 70.3
N#Cc1nn(-c2c(Cl)cc(C(F)(F)F)cc2Cl)c(N)c1S(=O)C(F)(F)F (centres undefined) [Fipronil] | 20.4 | 99 | 94.2 | 103 | 95.7 | 88.5 | 98.5
CCCOCC(=Nc1ccc(Cl)cc1C(F)(F)F)n1ccnc1 [Triflumizole] | 21.3 | 85.9 | 97.8 | 93.9 | 104 | 61.8 | 114
O=C(NCC(O)CO)c1c(I)c(C(=O)NCC(O)CO)c(I)c(N(CCO)C(=O)CO)c1I (centres undefined) [Ioversol] | 7.88 | 55.7 | 57.2 | 83.7 | – | 36 | 86.5
O=C(Nc1ccc(Cl)cc1)Nc1ccc(Cl)c(Cl)c1 [Triclocarban] | 22 | 57.9 | 91.3 | 113 | 118 | 64.3 | 112
Cc1cc(C)cc(OCC2CNC(=O)O2)c1 (centres undefined) [Metaxalone] | 17.8 | 104 | 87.1 | 95.8 | 85.9 | 87.9 | 99.2
CCCCCCCCn1sccc1=O [2-n-Octyl-4-isothiazolin-3-on (=OIT)] | 20.3 | 93 | 91.8 | 97.9 | 91.6 | 90.7 | 45.2
CCCCCC(C)OC(=O)COc1ccc(Cl)c2cccnc12 (centres undefined) [Cloquintocet-mexyl] | 22.4 | 56.8 | 70.9 | 111 | 67.2 | – | 103
FC(F)(F)c1cccc(N2CC[NH2+]CC2)c1 [1-(3-Trifluoromethylphenyl)-piperazine] | 13.6 | 66 | 66.4 | 97.4 | 71.9 | 69.9 | 93
CS(=O)(=O)c1cc(C(F)(F)F)ccc1C(=O)c1cnoc1C1CC1 [Isoxaflutole] | 18.3 | 19.2 | 22.8 | 74.8 | 21.8 | 35.1 | –
OC(Cc1ccccc1Cl)(Cn1[nH]cnc1=S)C1(Cl)CC1 (centres undefined) [Prothioconazole] | 21.2 | – | 41.8 | 96.6 | 94.5 | 14.7 | 39.8
N#Cc1nn(-c2c(Cl)cc(C(F)(F)F)cc2Cl)c(N)c1SC(F)(F)F [Fipronil-sulfid] | 20.5 | 105 | 89.4 | 118 | 107 | 121 | 137
C[N+](C)([O-])CCC(c1ccccc1)c1ccccn1 (centres undefined) [Pheniramine-N-oxide] | 11.6 | 94.5 | 88.3 | 105 | 93.4 | 89 | 94.2
Nc1[nH]c2ccccc2[nH+]1 [2-Aminobenzimidazol] | 9.5 | 90.5 | 91.9 | 103 | 90.3 | 92 | 99.3
C1=Cc2ccccc2Nc2ccccc21 [Iminostilben] | 20 | 90.1 | 79.4 | 22.9 | 82.6 | 89 | 37.9
NC1=[NH+]CCN1Cc1ccc(Cl)nc1 [Imidacloprid-desnitro] | 8.99 | 113 | 104 | 107 | 110 | 106 | 103
CCCC(CCC)(C(=O)[O-])C(=O)O [Dipropylmalonic-acid] | 18.2 | 94.4 | 94.7 | 103 | 88.7 | 87.9 | 109

Structure (SMILES) | LC retention time [1] [min] | absolute recovery ([2]; nanopure water) [%] | absolute recovery ([2]; wastewater effluent) [%] | absolute recovery ([3]; wastewater effluent) [%] | absolute recovery ([2]; surface water) [%] | absolute recovery ([2]; wastewater influent) [%] | absolute recovery ([3]; wastewater influent) [%]
O=S(=O)([O-])c1ccc2ccccc2c1 [2-Naphthalenesulfonic-acid] | 17.2 | – | 92.6 | 114 | – | – | 88.2
CC1COc2c(N3CCN(C)CC3)c(F)cc3c(=O)c(C(=O)[O-])cn1c23 (centres undefined) [Levofloxacin] | 11.2 | 88.7 | 93.3 | 103 | 108 | 114 | 135
CCC(C)c1cc([N+](=O)[O-])cc([N+](=O)[O-])c1[O-] (centres undefined) [Dinoseb] | 21.5 | 103 | 89.1 | 94.2 | 82.6 | 123 | 91.8
CC1CC2C3CCC4=CC(=O)C=CC4(C)C3(F)C(O)CC2(C)C1(O)C(=O)CO (centres undefined) [Dexamethason] | 18.7 | 92.3 | 91.2 | 106 | 86.2 | 94 | 105
CCCCOc1cc(C(=O)NCC[NH+](CC)CC)c2ccccc2n1 [Dibucaine] | 16.2 | 99.8 | 93 | 92 | 81.6 | – | 136
O=S(=O)([O-])c1ccc2ccc(S(=O)(=O)[O-])cc2c1 [2-7-Naphthalenedisulfonic-acid] | 8.38 | 93.9 | 77.2 | 108 | 77.6 | 88.8 | 112
CON=C(C(=O)[O-])c1ccccc1COc1ccccc1C [Kresoxim-methyl-acid] | 20.1 | 85.5 | 81.5 | 97.4 | 71.8 | 89.8 | 134
C[NH2+]CC(c1ccc(O)cc1)C1(O)CCCCC1 (centres undefined) [N-O-Didesvenlafaxin] | 12.1 | 80 | 76 | 106 | 79.7 | 83.4 | 100
CC(=O)NCC1CN(c2ccc(N3CCOCC3)c(F)c2)C(=O)O1 (centres undefined) [Linezolid] | 14.9 | 92.3 | 92 | 103 | 90.5 | 99.5 | 100
Clc1cccc(N2CC[NH2+]CC2)c1 [1-(3-Chlorophenyl)-piperazine] | 12.6 | 70.3 | 68.1 | 103 | 74.7 | 79.3 | 99.6
CCOC(=O)C1(c2ccccc2)CCC=CC1[NH+](C)C (centres undefined) [Tilidine] | 12.6 | 73.9 | 79.5 | 70 | 78.8 | 83.5 | 63.5
Cc1cc(C)nc([N-]S(=O)(=O)c2ccc(N)cc2)n1 [Sulfamethazin] | 12.1 | 95.2 | 86.2 | 103 | 91.3 | 89.8 | 96.1
CC(COc1ccccc1Cc1ccccc1)[NH+]1CCCCC1 (centres undefined) [Benproperine] | 16.2 | 93.2 | 93.7 | 117 | 111 | 70.7 | 109
C[NH2+]C(C)C(O)c1ccccc1 (centres undefined) [Ephedrin] | 9.53 | 93.4 | 89.3 | 107 | 93.3 | 89.4 | 99
CC(=O)C1CCC2C3CCC4=CC(=O)CCC4(C)C3CCC12C (centres undefined) [Progesteron] | 21.4 | 92.4 | 94.7 | 93.9 | 97.3 | 95.7 | 6.6
O=C([O-])c1ccccc1Nc1cccc(C(F)(F)F)c1 [Flufenamic-Acid] | 21.6 | 130 | 87.9 | 101 | 106 | – | 103
COP(=O)(OC)SCn1c(=O)oc2cc(Cl)cnc21 [Azamethiphos] | 16.6 | 65.5 | 65.1 | 82.9 | 65.7 | 50.5 | 67
COCCc1ccc(OCC(O)C[NH2+]C(C)C)cc1 (centres undefined) [Metoprolol] | 12.3 | 94.8 | 93.3 | 107 | 93.1 | 89.5 | 102
O=C1C=CC(=C2NC=CNC2=O)C=C1 [Amoxicillin-EP-Impurity-F] | 12.3 | 76.8 | 82.1 | 105 | 79.4 | 91.7 | 107
CCOc1ccc(NC(=O)OC(C)C)cc1OCC [Diethofencarb] | 19.2 | 98.1 | 95.6 | 104 | 103 | 93.8 | 106
COc1ccc(NC(=O)N(C)C)cc1Cl [Metoxuron] | 16 | 104 | 90.2 | 104 | 92.8 | 129 | 98.1

— the supplement of paper PMC6470124
